From patent US10633407B2, “14-membered ketolides and methods of their preparation and use” (President and Fellows of Harvard College, priority 2014, dated 2020)
≈ marks a conversion by molar mass, not a printed value.

What was measured:
Assay in all cases: CLSI broth dilution MIC determination
Type in all cases: cell-based
[1] = test system: K. pneumoniae MP-546 Clinical-MDR; conditions: Klebsiella pneumoniae, read-out: MIC
[2] = test system: A. baumannii MP-576 Clinical-MDR; conditions: Acinetobacter baumannii, read-out: MIC
P. aeruginosa MP-7 PAO1 = conditions: Pseudomonas aeruginosa, read-out: MIC
[3] = test system: P. aeruginosa MP-8 PAO1:mex (mex-oprM-deletion); conditions: Pseudomonas aeruginosa, PAO1
E. coli MP-541 clinical = conditions: Escherichia coli, MP541CLINICAL, read-out: MIC
How it was run: (§1)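 Azithromycin and solithromycin were included as macrolide controls in many cases. MICs were determined by CLSI standard broth dilution.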

[4] = test system: E. coli MP-9 ATCC25922:tolC; conditions: Escherichia coli, ATCC25922
How it was run: as §1

E. coli ATCC 25922 = conditions: Escherichia coli, ATCC25922, E. coli ATCC 25922 (MP-4); read-out: MIC
How it was run: as §1

[5] = test system: E. coli MP-532 clinical-cErmB; conditions: Escherichia coli
How it was run: as §1

[6] = test system: S. aureus MP-17 ATCCBAA-977 (BAA 977 iErm); conditions: Staphylococcus aureus; S. aureus MP-17, ATCCBAA-977, iErm; read-out: MIC
How it was run: as §1

S. aureus MRSA: USA300 = conditions: Staphylococcus aureus; S. aureus MRSA: USA300 (MP-549, msr(a)); read-out: MIC
How it was run: as §1

[7] = test system: S. aureus (MRSA) MP-513 ST-228 cErm (Clinical-cErm); conditions: Staphylococcus aureus, read-out: MIC
How it was run: as §1

S. aureus ATCC 29213 = conditions: Staphylococcus aureus, ATCC29213; S. aureus ATCC 29213 (MP-12); read-out: MIC
How it was run: as §1

[8] = test system: K. pneumoniae MP-548 clinical; conditions: Klebsiella pneumoniae, MP548CLINICAL, read-out: MIC
[9] = test system: A. baumannii MP-577 Clinical-AZT low; conditions: Acinetobacter baumannii, read-out: MIC
K. pneumoniae ATCC 10031 = conditions: Klebsiella pneumoniae, ATCC10031, K. pneumoniae ATCC 10031 (MP-14); read-out: MIC
A. baumannii ATCC 19606 = conditions: Acinetobacter baumannii, ATCC19606; A. baumannii ATCC 19606 (MP-15); read-out: MIC
P. aeruginosa ATCC 27853 = conditions: Pseudomonas aeruginosa, ATCC27853; P. aeruginosa ATCC 27853 (MP-3); read-out: MIC

| SMILES | MIC [1] | MIC [2] | MIC (P. aeruginosa MP-7 PAO1) | MIC [3] | MIC (E. coli MP-541 clinical) | MIC [4] | MIC (E. coli ATCC 25922) | MIC [5] | MIC [6] | MIC (S. aureus MRSA: USA300) | MIC [7] | MIC (S. aureus ATCC 29213) | MIC [8] | MIC [9] | MIC (K. pneumoniae ATCC 10031) | MIC (A. baumannii ATCC 19606) | MIC (P. aeruginosa ATCC 27853) |
| --- | --- | --- | --- | --- | --- | --- | --- | --- | --- | --- | --- | --- | --- | --- | --- | --- | --- |
| CC[C@H]1OC(=O)[C@@](C)(F)C(=O)[C@H](C)[C@@H](O[C@@H]2OC(C)CC(N(C)C)C2O)[C@](C)(OC)C[C@@H](C)C(=O)[C@H](C)[C@H]2N(CC#CCn3cc(-c4cc(OC)ccn4)nn3)C(=O)O[C@]12C (stereo partly drawn) [FSM-100576] | > 32 µg/mL | > 32 µg/mL | > 32 µg/mL | 8 µg/mL (≈ 9.33 µM) | 32 µg/mL (≈ 37.3 µM) | 2 µg/mL (≈ 2.33 µM) | 32 µg/mL (≈ 37.3 µM) | > 32 µg/mL | 0.125 µg/mL (≈ 0.146 µM) | 0.25 µg/mL (≈ 0.292 µM) | > 32 µg/mL | 0.125 µg/mL (≈ 0.146 µM) | > 32 µg/mL | > 32 µg/mL | 4 µg/mL (≈ 4.67 µM) | 16 µg/mL (≈ 18.7 µM) | > 32 µg/mL |
| CC[C@H]1OC(=O)[C@@](C)(F)C(=O)[C@H](C)[C@@H](O[C@@H]2OC(C)CC(N(C)C)C2O)[C@](C)(OC)C[C@@H](C)C(=O)[C@H](C)[C@H]2N(CC#CCn3cc(-c4cc(N)ccn4)nn3)C(=O)O[C@]12C (stereo partly drawn) [FSM-100593] | 32 µg/mL (≈ 38 µM) | > 64 µg/mL | 32 µg/mL (≈ 38 µM) | 2 µg/mL (≈ 2.38 µM) | 8 µg/mL (≈ 9.5 µM) | 0.5 µg/mL (≈ 0.594 µM) | 4 µg/mL (≈ 4.75 µM) | > 64 µg/mL | 0.125 µg/mL (≈ 0.148 µM) | 0.25 µg/mL (≈ 0.297 µM) | 64 µg/mL (≈ 76 µM) | 0.125 µg/mL (≈ 0.148 µM) | 16 µg/mL (≈ 19 µM) | 8 µg/mL (≈ 9.5 µM) | 1 µg/mL (≈ 1.19 µM) | 8 µg/mL (≈ 9.5 µM) | 32 µg/mL (≈ 38 µM) |
| CC[C@H]1OC(=O)[C@@](C)(F)C(=O)[C@H](C)[C@@H](O[C@@H]2OC(C)CC(N(C)C)C2O)[C@](C)(OC)C[C@@H](C)C(=O)[C@H](C)[C@H]2N(CC#CCn3cc(-c4cc(=O)cc[nH]4)nn3)C(=O)O[C@]12C (stereo partly drawn) [FSM-100597] | > 64 µg/mL | > 64 µg/mL | > 64 µg/mL | 16 µg/mL (≈ 19 µM) | 32 µg/mL (≈ 38 µM) | 4 µg/mL (≈ 4.75 µM) | 64 µg/mL (≈ 75.9 µM) | > 64 µg/mL | 1 µg/mL (≈ 1.19 µM) | 2 µg/mL (≈ 2.37 µM) | > 64 µg/mL | 1 µg/mL (≈ 1.19 µM) | > 64 µg/mL | > 64 µg/mL | 8 µg/mL (≈ 9.49 µM) | 64 µg/mL (≈ 75.9 µM) | > 64 µg/mL |
| CC[C@H]1OC(=O)[C@@](C)(F)C(=O)[C@H](C)[C@@H](O[C@@H]2OC(C)CC(N(C)C)C2O)[C@](C)(OC)C[C@@H](C)C(=O)[C@H](C)[C@H]2N(CC#CCn3cc(-c4cccc(F)n4)nn3)C(=O)O[C@]12C (stereo partly drawn) [FSM-100627] | 64 µg/mL (≈ 75.7 µM) | > 64 µg/mL | 64 µg/mL (≈ 75.7 µM) | 4 µg/mL (≈ 4.73 µM) | 8 µg/mL (≈ 9.47 µM) | 1 µg/mL (≈ 1.18 µM) | 16 µg/mL (≈ 18.9 µM) | > 64 µg/mL | 0.06 µg/mL (≈ 0.071 µM) | 0.125 µg/mL (≈ 0.148 µM) | 32 µg/mL (≈ 37.9 µM) | 0.06 µg/mL (≈ 0.071 µM) | 32 µg/mL (≈ 37.9 µM) | 32 µg/mL (≈ 37.9 µM) | 2 µg/mL (≈ 2.37 µM) | 8 µg/mL (≈ 9.47 µM) | 64 µg/mL (≈ 75.7 µM) |
| CC[C@H]1OC(=O)[C@@](C)(F)C(=O)[C@H](C)[C@@H](O[C@@H]2OC(C)CC(N(C)C)C2O)[C@](C)(OC)C[C@@H](C)C(=O)[C@H](C)[C@H]2N(CC#CCn3cc(-c4cnc(N)s4)nn3)C(=O)O[C@]12C (stereo partly drawn) [FSM-100633] | 64 µg/mL (≈ 75.5 µM) | > 64 µg/mL | 32 µg/mL (≈ 37.7 µM) | 4 µg/mL (≈ 4.72 µM) | 8 µg/mL (≈ 9.43 µM) | 1 µg/mL (≈ 1.18 µM) | 8 µg/mL (≈ 9.43 µM) | > 64 µg/mL | 0.125 µg/mL (≈ 0.147 µM) | 0.125 µg/mL (≈ 0.147 µM) | 64 µg/mL (≈ 75.5 µM) | 0.125 µg/mL (≈ 0.147 µM) | 32 µg/mL (≈ 37.7 µM) | 16 µg/mL (≈ 18.9 µM) | 2 µg/mL (≈ 2.36 µM) | 4 µg/mL (≈ 4.72 µM) | 32 µg/mL (≈ 37.7 µM) |
| CC[C@H]1OC(=O)[C@H](C)C(=O)[C@H](C)[C@@H](O[C@@H]2OC(C)CC(N(C)C)C2O)[C@](C)(OC)C[C@@H](C)C(=O)[C@H](C)[C@H]2N(CC#CCn3cc(-c4cccnn4)nn3)C(=O)O[C@]12C (stereo partly drawn) [FSM-130216] | > 64 µg/mL | > 64 µg/mL | > 64 µg/mL | 16 µg/mL (≈ 19.8 µM) | 64 µg/mL (≈ 79 µM) | 4 µg/mL (≈ 4.94 µM) | 32 µg/mL (≈ 39.5 µM) | > 64 µg/mL | 0.25 µg/mL (≈ 0.309 µM) | 0.5 µg/mL (≈ 0.617 µM) | > 64 µg/mL | 0.25 µg/mL (≈ 0.309 µM) | > 64 µg/mL | 64 µg/mL (≈ 79 µM) | 4 µg/mL (≈ 4.94 µM) | 16 µg/mL (≈ 19.8 µM) | > 64 µg/mL |
| CC[C@H]1OC(=O)[C@@](C)(F)C(=O)[C@H](C)[C@@H](O[C@@H]2OC(C)CC(N(C)C)C2O)[C@](C)(OC)C[C@@H](C)C(=O)[C@H](C)[C@H]2N(CC#CCn3cc(-c4cccnn4)nn3)C(=O)O[C@]12C (stereo partly drawn) [FSM-130217] | > 64 µg/mL | > 64 µg/mL | > 64 µg/mL | 16 µg/mL (≈ 19.3 µM) | 32 µg/mL (≈ 38.6 µM) | 4 µg/mL (≈ 4.83 µM) | 32 µg/mL (≈ 38.6 µM) | > 64 µg/mL | 0.25 µg/mL (≈ 0.302 µM) | 0.25 µg/mL (≈ 0.302 µM) | > 64 µg/mL | 0.25 µg/mL (≈ 0.302 µM) | > 64 µg/mL | 32 µg/mL (≈ 38.6 µM) | 8 µg/mL (≈ 9.66 µM) | 16 µg/mL (≈ 19.3 µM) | > 64 µg/mL |
| CC[C@H]1OC(=O)[C@H](C)C(=O)[C@H](C)[C@@H](O[C@@H]2OC(C)CC(N(C)C)C2O)[C@](C)(OC)C[C@@H](C)C(=O)[C@H](C)[C@H]2N(NCCCn3nc4ccccc4n3)C(=O)O[C@]12C (stereo partly drawn) [FSM-140132] | > 64 µg/mL | > 64 µg/mL | > 64 µg/mL | 8 µg/mL (≈ 10.2 µM) | 32 µg/mL (≈ 40.7 µM) | 2 µg/mL (≈ 2.54 µM) | 16 µg/mL (≈ 20.3 µM) | > 64 µg/mL | 0.25 µg/mL (≈ 0.318 µM) | 0.5 µg/mL (≈ 0.635 µM) | > 64 µg/mL | 0.25 µg/mL (≈ 0.318 µM) | 64 µg/mL (≈ 81.3 µM) | 32 µg/mL (≈ 40.7 µM) | 4 µg/mL (≈ 5.08 µM) | 32 µg/mL (≈ 40.7 µM) | > 64 µg/mL |
| CC[C@H]1OC(=O)[C@H](C)C(=O)[C@H](C)[C@@H](O[C@@H]2OC(C)CC(N(C)C)C2O)[C@](C)(OC)C[C@@H](C)C(=O)[C@H](C)[C@H]2N(NCCCn3nnc4ccccc43)C(=O)O[C@]12C (stereo partly drawn) [FSM-140133] | > 64 µg/mL | > 64 µg/mL | 64 µg/mL (≈ 81.3 µM) | 8 µg/mL (≈ 10.2 µM) | 16 µg/mL (≈ 20.3 µM) | 4 µg/mL (≈ 5.08 µM) | 16 µg/mL (≈ 20.3 µM) | > 64 µg/mL | 0.25 µg/mL (≈ 0.318 µM) | 0.5 µg/mL (≈ 0.635 µM) | > 64 µg/mL | 0.25 µg/mL (≈ 0.318 µM) | 64 µg/mL (≈ 81.3 µM) | 64 µg/mL (≈ 81.3 µM) | 4 µg/mL (≈ 5.08 µM) | 8 µg/mL (≈ 10.2 µM) | 64 µg/mL (≈ 81.3 µM) |
